Like-named read-outs stand apart in the source and are kept apart here.
What was measured:
mice (Balb/c) = experiment: 28 d sub-acute oral toxicity (OECD TG 407); assay type: in vivo; settings: for Protein: normal 6-9; for SGOT: normal 19@25° C.; for Glucose: normal 55-130; for Bilirubin: normal <1.1; for SGPT: normal <22 @25° C.; for CMI DTH (% increase in paw vol): SRBC sensitized; for Total Ig IgG / Total Ig IgM: serum, ELISA; for % viability BM / % viability LN / % viability Spleen: trypan blue
Description: (§1) The study was performed according to the guidelines laid in OECD TG 407. Young healthy adult mice (Balb/c) weighing between 28 to 35 g were employed and randomly assigned to the control and treatment groups and kept in their cages for at least five days prior to the start of the treatment to allow for acclimatisation to the laboratory conditions. 10 animals (five female and five male) were used at each dose level. Local standards of laboratory animal care were maintained. The temperature in the experimental animal room was maintained at 24° C.±3° C. and the relative humidity between 40 to 60% with 12 hours artificial light and 12 hours dark photoperiod. For feeding, conventional sterile pellet diets (Nay Chetan) with an unlimited supply of RO drinking water was given. A sample of the diet was retained until finalisation of the report. Animals were housed in small groups of 5 of the same sex.
(§2) Blunt ended canula was used for gavaging. During the period of administration of Compound I, the animals are observed closely (30 minutes cage side observation), each day for signs of toxicity till the day of sacrifice. Weights of animals and measurements of food consumption were made once in a week.
(§3) Experimental animals were sacrificed on day 29. Before sacrifice, blood was drawn from the retro-orbital sinus of mice with the help of heparinised capillary tubes and split in to two parts. Part taken in tubes containing EDTA was used for hematological studies with the help of Automatic Hematology Analyzer (Medonic). The other part was allowed to clot for 2 h and serum separated by centrifugation at 3000 rpm for 5 min, and subsequently used for clinical biochemistry and immunoglobuling profiling. Post sacrifice, the individual organs were dissected out, weighed and percentage relative organ weights determined. Spleen, lymphnode and bone marrow cell viability were judged by trypan blue dye exclusion test.
(§4) The blood left after the hematological studies were allowed to clot for 2 h and serum separated by centrifugation at 3000 rpm for 5 min and subsequently used for clinical biochemistry. Details of the clinical biochemistry are given below in table II.
(§5) Serum concentrations of total IgG and IgM were measured by ELISA and Cell mediated immunity was measured in terms of % increase in paw volume in mice sensitized with SRBC.
(§6) Histopathology was carried out on vital organs by fixing organs in 10% buffered formalin saline for 72 h followed by washing, dehydrating and embedding on paraffin wax. Paraffin blocks were sectioned (4-5μ tick), deparaffinised and stained with hematoxylin and eosin for viewing and photography under microscope (Nikion, Japan). Histopathology was performed in the control and high dose groups unless mentioned otherwise.

[1] = 28 d sub-acute oral toxicity (OECD TG 407); assay type: in vivo, mice; settings: both sexes, Balb/c, mouse, in vivo; mice, 28 d oral
Description: as §1, §2, §3, §4, §5, §6

[2] = Organ distribution of ICB/11/D-8; assay type: in vivo; settings: Swiss, mouse, N=4 mice
Description: Organ Distribution of ICB/11/D-8 (ug/100 mg tissue, N=4 mice, 50

COc1cc(C=O)cc2c1[nH]c1ccccc12 [Compound I, 1-methoxy-3-formyl-9H carbazole]
HGB (mice (Balb/c); 42 mg/kg, 28 d oral): 9.47 ± 1.7 g/dL | PLT (mice (Balb/c); 42 mg/kg, 28 d oral): 439 ± 76 × 10^3/mm^3 | RBC (mice (Balb/c); 42 mg/kg, 28 d oral): 7.29 ± 1.46 ×10^6/mm^3 | WBC (mice (Balb/c); 42 mg/kg, 28 d oral): 6.7 ± 1.2 10^3/mm^3 | Protein (mice (Balb/c); 42 mg/kg, 28 d oral): 7.93 ± 1.33 g/dL | SGOT (mice (Balb/c); 42 mg/kg, 28 d oral): 15.51 ± 3.6 U/L | Glucose (mice (Balb/c); 42 mg/kg, 28 d oral): 127 ± 17 mg/dL | Bilirubin (mice (Balb/c); 42 mg/kg, 28 d oral): 0.74 ± 0.08 mg/dL | SGPT (mice (Balb/c); 42 mg/kg, 28 d oral): 18.54 ± 2.1 U/L | CMI DTH (% increase in paw vol) (mice (Balb/c); 47 mg/kg, 28 d oral): 17.23 ± 4.4 % increase in paw vol | Total Ig IgG (mice (Balb/c); 47 mg/kg, 28 d oral): 3.1 ± 0.85 mg/mL | Total Ig IgM (mice (Balb/c); 47 mg/kg, 28 d oral): 1.48 ± 0.12 | % viability BM (mice (Balb/c); 47 mg/kg, 28 d oral): 97.3 ± 3.5% | % viability LN (mice (Balb/c); 47 mg/kg, 28 d oral): 95.9 ± 5.4% | % viability Spleen (mice (Balb/c); 47 mg/kg, 28 d oral): 96.8 ± 4.8% | glucose vs normal range (mice (Balb/c); 93 mg/kg): marginally higher than the normal range | symptoms of toxicity (mice (Balb/c); 93 mg/kg body weight): no symptoms of toxicity | HGB (mice (Balb/c); 93 mg/kg, 28 d oral): 12.8 ± 2.4 g/dL | PLT (mice (Balb/c); 93 mg/kg, 28 d oral): 426 ± 43 × 10^3/mm^3 | RBC (mice (Balb/c); 93 mg/kg, 28 d oral): 8.52 ± 1.4 ×10^6/mm^3 | WBC (mice (Balb/c); 93 mg/kg, 28 d oral): 5.9 ± 1.4 10^3/mm^3 | CMI DTH (% increase in paw vol) (mice (Balb/c); 93 mg/kg, 28 d oral): 19.2 ± 6.3 % increase in paw vol | Protein (mice (Balb/c); 93 mg/kg, 28 d oral): 8.73 ± 2.8 g/dL | SGOT (mice (Balb/c); 93 mg/kg, 28 d oral): 12.9 ± 1.92 U/L | Glucose (mice (Balb/c); 93 mg/kg, 28 d oral): 133 ± 13 mg/dL | Bilirubin (mice (Balb/c); 93 mg/kg, 28 d oral): 0.17 ± 0.068 mg/dL | SGPT (mice (Balb/c); 93 mg/kg, 28 d oral): 10.2 ± 2.9 U/L | Total Ig IgG (mice (Balb/c); 93 mg/kg, 28 d oral): 3.6 ± 1.26 mg/mL | Total Ig IgM (mice (Balb/c); 93 mg/kg, 28 d oral): 1.12 ± 0.33 | % viability BM (mice (Balb/c); 93 mg/kg, 28 d oral): 96.8 ± 4.6% | % viability LN (mice (Balb/c); 93 mg/kg, 28 d oral): 96.5 ± 4.6% | % viability Spleen (mice (Balb/c); 93 mg/kg, 28 d oral): 95.4 ± 5.3% | SGOT vs normal range (mice (Balb/c); 187 mg/kg): marginally higher than the normal range | glucose level vs normal range (mice (Balb/c); 187 mg/kg): much higher than the normal range | kidney histopathology (mice (Balb/c); 187 mg/kg): sign of necrosis in the corticular region | signs of toxicity (mice (Balb/c); 187 mg/kg): Few signs of toxicity | HGB (mice (Balb/c); 187 mg/kg, 28 d oral): 13.2 ± 1.8 g/dL | PLT (mice (Balb/c); 187 mg/kg, 28 d oral): 472 ± 65 × 10^3/mm^3 | RBC (mice (Balb/c); 187 mg/kg, 28 d oral): 8.6 ± 0.67 ×10^6/mm^3 | WBC (mice (Balb/c); 187 mg/kg, 28 d oral): 5.9 ± 4.1 10^3/mm^3 | CMI DTH (% increase in paw vol) (mice (Balb/c); 187 mg/kg, 28 d oral): 17.4 ± 6.6 % increase in paw vol | Protein (mice (Balb/c); 187 mg/kg, 28 d oral): 7.27 ± 0.85 g/dL | SGOT (mice (Balb/c); 187 mg/kg, 28 d oral): 20.2 ± 0.85 U/L | Glucose (mice (Balb/c); 187 mg/kg, 28 d oral): 183 ± 20 mg/dL | Bilirubin (mice (Balb/c); 187 mg/kg, 28 d oral): 0.91 ± 0.057 mg/dL | SGPT (mice (Balb/c); 187 mg/kg, 28 d oral): 15.83 ± 2.32 U/L | Total Ig IgG (mice (Balb/c); 187 mg/kg, 28 d oral): 2.9 ± 0.56 mg/mL | Total Ig IgM (mice (Balb/c); 187 mg/kg, 28 d oral): 1.04 ± 0.34 | % viability BM (mice (Balb/c); 187 mg/kg, 28 d oral): 94.67 ± 4.9% | % viability LN (mice (Balb/c); 187 mg/kg, 28 d oral): 97.4 ± 3.9% | % viability Spleen (mice (Balb/c); 187 mg/kg, 28 d oral): 98.4 ± 4.4% | DTH response vs sham treated control (mice (Balb/c); SRBC sensitized mice): insignificant changes | acute oral LOAEL (mice (Balb/c); mice, 28 d oral): 187 mg/kg | viability of bone marrow cells, splenocyte and lymph node lymphocyte vs sham control (mice (Balb/c); trypan blue dye exclusion test): No significant changes | NOAEL at 28 days [1]: 93 mg/kg | concentration at 0.5 hr ([2]; brain, 0.5 hr, read-out: Organ distribution: Brain): 2300 ng/g | concentration at 2 hr ([2]; brain, 2 hr, read-out: Organ distribution: Brain): 26700 ng/g | concentration at 4 hr ([2]; brain, 4 hr, read-out: Organ distribution: Brain): 43300 ng/g | concentration at 12 hr ([2]; brain, 12 hr, read-out: Organ distribution: Brain): 3600 ng/g | concentration at 0.5 hr ([2]; heart, 50 not found, 0.5 hr, read-out: Organ distribution: Heart): 185000 ng/g | concentration at 2 hr ([2]; heart, 2 hr, read-out: Organ distribution: Heart): 263000 ng/g | concentration at 4 hr ([2]; heart, 4 hr, read-out: Organ distribution: Heart): 168000 ng/g | concentration at 12 hr ([2]; heart, 12 hr, read-out: Organ distribution: Heart): 32200 ng/g | concentration at 0.5 h ([2]; intestine, 0.5 hr): 105000 ng/g | concentration at 2 h ([2]; intestine, 2 hr): 168000 ng/g | concentration at 4 h ([2]; intestine, 4 hr): 124000 ng/g | concentration at 12 h ([2]; intestine, 12 hr): 25500 ng/g | concentration at 0.5 hr ([2]; kidneys, 0.5 hr, read-out: Organ distribution: Kidneys): 135000 ng/g | concentration at 2 hr ([2]; kidneys, 2 hr, read-out: Organ distribution: Kidneys): 171000 ng/g | concentration at 4 hr ([2]; kidneys, 4 hr, read-out: Organ distribution: Kidneys): 105000 ng/g | concentration at 12 hr ([2]; kidneys, 12 hr, read-out: Organ distribution: Kidneys): 15800 ng/g | concentration at 0.5 hr ([2]; liver, 0.5 hr, read-out: Organ distribution: Liver): 89500 ng/g | concentration at 2 hr ([2]; liver, 2 hr, read-out: Organ distribution: Liver): 168000 ng/g | concentration at 4 hr ([2]; liver, 4 hr, read-out: Organ distribution: Liver): 110000 ng/g | concentration at 12 hr ([2]; liver, 12 hr, read-out: Organ distribution: Liver): 12500 ng/g | concentration at 2 hr ([2]; lungs, 50 not found, 2 hr, read-out: Organ distribution: Lungs): 273000 ng/g | concentration at 4 hr ([2]; lungs, 50 not found, 4 hr, read-out: Organ distribution: Lungs): 80700 ng/g | concentration at 12 hr ([2]; lungs, 50 not found, 12 hr, read-out: Organ distribution: Lungs): 6700 ng/g | concentration at 0.5 hr ([2]; lungs, 0.5 hr, read-out: Organ distribution: Lungs): 122000 ng/g | concentration at 0.5 hr ([2]; spleen, 50 not found, 0.5 hr, read-out: Organ distribution: Spleen): 123000 ng/g | concentration at 2 hr ([2]; spleen, 50 not found, 2 hr, read-out: Organ distribution: Spleen): 140000 ng/g | concentration at 4 hr ([2]; spleen, 50 not found, 4 hr, read-out: Organ distribution: Spleen): 52500 ng/g | concentration at 12 hr ([2]; spleen, 50 not found, 12 hr, read-out: Organ distribution: Spleen): 9100 ng/g | concentration at 0.5 hr ([2]; stomach, 0.5 hr, read-out: Organ distribution: Stomach): 378000 ng/g | concentration at 2 hr ([2]; stomach, 2 hr, read-out: Organ distribution: Stomach): 689000 ng/g | concentration at 4 hr ([2]; stomach, 4 hr, read-out: Organ distribution: Stomach): 227000 ng/g | concentration at 12 hr ([2]; stomach, 12 hr, read-out: Organ distribution: Stomach): 43300 ng/g | concentration at 0.5 hr ([2]; urine, 0.5 hr, read-out: Organ distribution: Urine/ml): 2600 ng/mL | concentration at 2 hr ([2]; urine, 2 hr, read-out: Organ distribution: Urine/ml): 6560 ng/mL | concentration at 4 hr ([2]; urine, 4 hr, read-out: Organ distribution: Urine/ml): 4070 ng/mL | concentration at 0.5 hr ([2]; male, testes, 0.5 hr, read-out: Organ distribution: Testes): 168000 ng/g | concentration at 2 hr ([2]; male, testes, 2 hr, read-out: Organ distribution: Testes): 313000 ng/g | concentration at 4 hr ([2]; male, testes, 4 hr, read-out: Organ distribution: Testes): 58800 ng/g | concentration at 12 hr ([2]; male, testes, 12 hr, read-out: Organ distribution: Testes): 7800 ng/g

Source: patent US8519154B2, “Method for treatment of bronchial asthma” (Council of Scientific & Industrial Research, priority 2011, dated 2013)
